Assay results taken from patent US4822800A (Ortho Pharmaceutical Corporation, priority 1986, dated 1989).
Entries after “also recorded” stand apart in the source; their conditions may differ. Like-named read-outs stand apart in the source and are kept apart here.

Columns and labels:
[1] = biological target: T1, Phosphodiesterase fraction III (Canis lupus familiaris, UniProt A0A8I3NYE0); test: inhibition of phosphodiesterase fraction III activity; assay type: biochemical, canine (heart); conditions: for IC50: cyclic AMP 0.10-1.0 uM, pH 7.4, canine heart enzyme
T1 construct: isolated as an isozyme from the crude canine heart homogenate; from tissue; host or cells: canine heart (crude homogenate, ion exchange chromatography, third and last PDE peak)
T1 sequence (A0A8I3NYE0 1-1135): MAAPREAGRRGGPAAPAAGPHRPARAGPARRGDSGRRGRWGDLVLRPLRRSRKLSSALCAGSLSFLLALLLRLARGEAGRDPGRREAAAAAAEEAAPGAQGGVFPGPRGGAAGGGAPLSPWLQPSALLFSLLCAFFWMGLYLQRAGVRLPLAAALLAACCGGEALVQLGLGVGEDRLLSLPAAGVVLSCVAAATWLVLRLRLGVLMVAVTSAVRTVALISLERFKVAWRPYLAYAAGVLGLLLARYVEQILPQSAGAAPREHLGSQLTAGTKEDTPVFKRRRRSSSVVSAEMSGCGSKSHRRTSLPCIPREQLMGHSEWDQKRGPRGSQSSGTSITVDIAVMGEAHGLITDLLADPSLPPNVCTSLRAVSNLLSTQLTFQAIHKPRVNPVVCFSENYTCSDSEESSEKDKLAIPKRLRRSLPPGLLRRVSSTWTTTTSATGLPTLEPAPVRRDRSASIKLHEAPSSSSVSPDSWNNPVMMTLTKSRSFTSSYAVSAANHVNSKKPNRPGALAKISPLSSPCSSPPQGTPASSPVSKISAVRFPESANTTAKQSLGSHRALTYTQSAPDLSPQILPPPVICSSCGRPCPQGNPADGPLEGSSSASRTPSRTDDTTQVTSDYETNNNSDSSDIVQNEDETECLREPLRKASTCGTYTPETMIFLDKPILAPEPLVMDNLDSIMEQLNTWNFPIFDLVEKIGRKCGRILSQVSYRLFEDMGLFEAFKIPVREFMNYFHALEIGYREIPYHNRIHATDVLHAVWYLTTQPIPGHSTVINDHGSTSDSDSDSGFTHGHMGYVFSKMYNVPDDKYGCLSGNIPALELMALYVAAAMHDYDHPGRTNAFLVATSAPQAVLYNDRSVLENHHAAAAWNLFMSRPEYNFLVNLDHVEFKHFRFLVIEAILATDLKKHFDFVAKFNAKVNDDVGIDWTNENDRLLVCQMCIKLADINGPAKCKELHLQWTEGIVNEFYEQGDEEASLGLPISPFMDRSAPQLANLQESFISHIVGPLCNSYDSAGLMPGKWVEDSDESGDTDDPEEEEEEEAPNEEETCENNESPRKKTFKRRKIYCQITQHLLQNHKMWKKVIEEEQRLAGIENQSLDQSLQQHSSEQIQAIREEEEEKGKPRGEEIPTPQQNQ

adult mongrel dogs [2] = test: renal vasodilating activity in anesthetized dogs; assay type: in vivo, dog (adult mongrel); conditions: for change in vivo at 5 mg/kg / change in vivo at 1.2 mg/kg: Canis lupus familiaris, renal vasodilator, relative to controls; for change in vivo at 5 mg/kg: dose 5.0 mg/kg intravenous; for change in vivo at 1.2 mg/kg: dose 1.2 mg/kg intravenous
Method in brief: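 In anesthetized mongrel dogs, compounds infused IV at rising (usually three-fold) rates, 5 min per dose, after a dopamine check (3 μg/kg/min, 10 min). Renal artery flow measured electromagnetically, pressure via carotid cannula; values are maximal % change from pre-drug control in RBF, RVR (MABP/flow), MABP and HR.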

adult mongrel dogs [3] = test: acute in vivo cardiotonic activity in anesthetized dogs; design: species or system dog (adult mongrel); conditions: for change in vivo at 1.875 mg/kg / change in vivo at 0.375 mg/kg: Canis lupus familiaris, cardiotonic, relative to controls; for change in vivo at 1.875 mg/kg: dose 1.875 mg/kg intravenous; for change in vivo at 0.375 mg/kg: dose 0.375 mg/kg intravenous
Method in brief: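 Pentobarbital-anaesthetised, artificially respired mongrel dogs received compound by intravenous infusion or oral bolus. Recordings covered femoral arterial pressure, heart rate, LV dP/dt max (Millar catheter), aortic flow cardiac output, right-ventricular contractile force (strain gauge) and lead II ECG. Dopamine 10 μg/kg/min checked responsiveness; dose-related changes were expressed as % of pretreatment values and rated.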

[4] = read-out: RBF (renal blood flow)
[5] = read-out: RVR (renal vascular resistance)
[6] = read-out: MABP (mean arterial blood pressure)
[7] = read-out: dP/dt (maximum change left ventricular pressure with time)

| Compound | IC50 [1] | phosphodiesterase fraction III inhibition (in words) ([1]; summary of Table 5) | change in vivo at 5 mg/kg (adult mongrel dogs [2]; [4]) | change in vivo at 5 mg/kg (adult mongrel dogs [2]; [5]) | renal vasodilating activity (in words) (adult mongrel dogs [2]; summary of Table 4) | change in vivo at 1.875 mg/kg (adult mongrel dogs [3]; read-out: CF (cardiac force)) | change in vivo at 1.875 mg/kg (adult mongrel dogs [3]; read-out: HR (heart rate)) | change in vivo at 1.875 mg/kg (adult mongrel dogs [3]; [6]) | change in vivo at 1.875 mg/kg (adult mongrel dogs [3]; [7]) | cardiotonic activity (in words) (adult mongrel dogs [3]; summary of Table 4) | change in vivo at 1.2 mg/kg (adult mongrel dogs [2]; read-out: HR (heart rate)) | change in vivo at 1.2 mg/kg (adult mongrel dogs [2]; [6]) | change in vivo at 1.2 mg/kg (adult mongrel dogs [2]; [4]) | change in vivo at 1.2 mg/kg (adult mongrel dogs [2]; [5]) | change in vivo at 0.375 mg/kg (adult mongrel dogs [3]; read-out: CF (cardiac force)) | change in vivo at 0.375 mg/kg (adult mongrel dogs [3]; read-out: HR (heart rate)) | change in vivo at 0.375 mg/kg (adult mongrel dogs [3]; [6]) | change in vivo at 0.375 mg/kg (adult mongrel dogs [3]; [7]) |
| --- | --- | --- | --- | --- | --- | --- | --- | --- | --- | --- | --- | --- | --- | --- | --- | --- | --- | --- |
| COc1cc2c(CCl)nc(O)c(Cl)c2cc1OC [AD] | 11 µM | inhibit phosphodiesterase fraction III activity; also recorded: phosphodiesterase fraction III inhibiting properties | 16% | -32% | renal vasodilating properties | 111% | 21% | -3% | 106% | cardiotonic properties | – | – | – | – | – | – | – | – |
| COc1cc(OC)c2c(C)nc(O)cc2c1 [AH] | 80 µM | – | – | – | – | – | – | – | – | – | 25% | -6% | 13% | -17% | 50% | 6% | -3% | 46% |
